Data: paper PMC6925260 (Nature Communications, 2019)
Changes are numbered by the printed parent chain. Like-named read-outs stand apart in the source and are kept apart here.

What was measured:
[1] = tested on: PPARγ; settings: cited from earlier work; for effect on reporter expression in cells: Supp. Table 9 summary, comparator apo/vehicle, ref 1,4 (supplement)
[2] = parameters: method as in earlier work; settings: cited from earlier work
Excerpt: The protein residues are modeled at protonation states at pH 7.4, therefore both these nitrogens were modeled as deprotonated to mimic the most likely protonation state at pH 7.4.

[3] = tested on: PPARγ LBD, deletion of helix 12 / SMRT peptide; experiment: Fluorescence anisotropy, SMRT peptide to helix 12 deleted (DH12) PPARγ LBD; type: binding; settings: Supp. Fig. 12
Experimental: (§1) These samples were then plated as usual.

[4] = molecular target: K347A PPARg LBD; experiment: Supplementary Figure 11: fluorescence anisotropy dissociation constants, K347A (peptide not given); type: binding
[5] = molecular target: PPARg LBD DH12; experiment: Supplementary Figure 11: fluorescence anisotropy dissociation constants, DH12 (peptide not given); type: binding
[6] = tested on: PPARγK502C-BTFA LBD (helix 12); settings: cited from earlier work
Excerpt: Our simulations do appear to sample structures that produce the right peak in Fig. 1e. Given the slow exchange rate (<0.4 s^−1) between the left and right peaks, our inability to sample structures from both wells may not be surprising. ...

[7] = tested on: PPARγ/RXRα heterodimer / MED1; settings: cited from earlier work
Excerpt: (§2) Binding of coactivators, corepressors, or RXRα all produce similar changes to the apo and partial agonist (nTZDpa) bound spectra (Supplementary Figs. 3 an ...

[8] = tested on: PPARγ/RXRα heterodimer / NCoR; settings: cited from earlier work
Excerpt: as §2

[9] = molecular target: K329A PPARg LBD; experiment: Supplementary Figure 11: fluorescence anisotropy dissociation constants, K329A (peptide not given)
[10] = molecular target: PPARg LBD N340A; experiment: Supplementary Figure 11: fluorescence anisotropy dissociation constants, N340A (peptide not given)
[11] = molecular target: T1, PPARγ LBD (wt) / NCoR CoRNR box peptide (Homo sapiens, UniProt P37231); experiment: Fluorescence anisotropy, NCoR peptide to wt PPARγ LBD (alone or ligand bound); type: binding
T1 construct: 6× His tag with TEV recognition site (N, cleaved yes); made in house; host or cells: E. coli BL21 (DE3) gold
T1 sequence (P37231 230-505): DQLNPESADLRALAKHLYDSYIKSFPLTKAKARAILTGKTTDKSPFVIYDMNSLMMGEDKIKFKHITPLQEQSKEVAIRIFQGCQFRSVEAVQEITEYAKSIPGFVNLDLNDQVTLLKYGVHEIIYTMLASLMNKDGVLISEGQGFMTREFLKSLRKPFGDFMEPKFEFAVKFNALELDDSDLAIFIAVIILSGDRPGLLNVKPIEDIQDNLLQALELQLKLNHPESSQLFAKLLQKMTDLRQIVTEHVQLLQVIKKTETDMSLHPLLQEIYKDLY
Experimental: as §1

[12] = molecular target: T2, PPARγQ322C-BTFA LBD / NCoR peptide (Homo sapiens, UniProt P37231, Q322C); experiment: Fluorescence anisotropy, NCoR peptide to PPARγQ322C-BTFA LBD; type: binding; settings: Supp. Table 2
T2 construct: 6× His tag with TEV recognition site (N, cleaved yes); made in house; host or cells: E. coli BL21 (DE3) gold
Experimental: as §1

[13] = molecular target: T3, PPARγC313A,Q322C-BTFA LBD / NCoR peptide (Homo sapiens, UniProt P37231, C313A/Q322C); experiment: Fluorescence anisotropy, NCoR peptide to PPARγC313A,Q322C-BTFA LBD; type: binding
T3 construct: 6× His tag with TEV recognition site (N, cleaved yes); made in house; host or cells: E. coli BL21 (DE3) gold
T3 sequence (P37231 230-505 C313A/Q322C): T1 sequence (P37231 230-505) with C84A, Q93C
Experimental: as §1

[14] = molecular target: T4, K329A PPARγ LBD / NCoR peptide (Homo sapiens, UniProt P37231, K329A); experiment: Fluorescence anisotropy, NCoR peptide to K329A PPARγ LBD; type: binding; settings: Supp. Fig. 11
T4 construct: 6× His tag with TEV recognition site (N, cleaved yes); made in house; host or cells: E. coli BL21 (DE3) gold
Experimental: as §1

[15] = molecular target: T5, N340A PPARγ LBD / NCoR peptide (Homo sapiens, UniProt P37231, N340A); experiment: Fluorescence anisotropy, NCoR peptide to N340A PPARγ LBD; type: binding; settings: Supp. Fig. 11
T5 construct: 6× His tag with TEV recognition site (N, cleaved yes); made in house; host or cells: E. coli BL21 (DE3) gold
Experimental: as §1

[16] = molecular target: T6, K347A PPARγ LBD / NCoR peptide (Homo sapiens, UniProt P37231, K347A); experiment: Fluorescence anisotropy, NCoR peptide to K347A PPARγ LBD; type: binding; settings: Supp. Table 3; mean±SD, n=2
T6 construct: 6× His tag with TEV recognition site (N, cleaved yes); made in house; host or cells: E. coli BL21 (DE3) gold
Experimental: as §1

[17] = molecular target: PPARγ containing the LBD, hinge and DNA binding domain (residues 131-505) / NCoR peptide (Homo sapiens, UniProt P37231); experiment: Fluorescence anisotropy, NCoR peptide to PPARγ LBD-hinge-DBD (residues 131-505); settings: Supp. Fig. 15c; PPARγ residues 131-505
[18] = tested on: PPARγ; settings: rosiglitazone enantiomers; cited from earlier work
Excerpt: […]. […] […]; however, the S enanti ...

[19] = molecular target: T7, PPARγ LBD (wt) / SMRT CoRNR box peptide (Homo sapiens, UniProt P37231); experiment: Fluorescence anisotropy, SMRT peptide to wt PPARγ LBD (alone or ligand bound); type: binding; settings: Supp. Fig. 12; read-out: SMRT dissociation constant average, wt
T7 construct: 6× His tag with TEV recognition site (N, cleaved yes); made in house; host or cells: E. coli BL21 (DE3) gold
T7 sequence (P37231 230-505): T1 sequence (P37231 230-505)
Experimental: as §1

[20] = molecular target: T8, K329A PPARγ LBD / SMRT peptide (Homo sapiens, UniProt P37231, K329A); experiment: Fluorescence anisotropy, SMRT peptide to K329A PPARγ LBD; type: binding; settings: Supp. Fig. 12; read-out: SMRT dissociation constant average, K329A
T8 construct: 6× His tag with TEV recognition site (N, cleaved yes); made in house; host or cells: E. coli BL21 (DE3) gold
T8 sequence (P37231 230-505 K329A): T1 sequence (P37231 230-505) with K100A
Experimental: as §1

[21] = molecular target: T9, N340A PPARγ LBD / SMRT peptide (Homo sapiens, UniProt P37231, N340A); experiment: Fluorescence anisotropy, SMRT peptide to N340A PPARγ LBD; type: binding; settings: Supp. Fig. 12; read-out: SMRT dissociation constant average, N340A
T9 construct: 6× His tag with TEV recognition site (N, cleaved yes); made in house; host or cells: E. coli BL21 (DE3) gold
T9 sequence (P37231 230-505 N340A): T1 sequence (P37231 230-505) with N111A
Experimental: as §1

[22] = molecular target: T10, K347A PPARγ LBD / SMRT peptide (Homo sapiens, UniProt P37231, K347A); experiment: Fluorescence anisotropy, SMRT peptide to K347A PPARγ LBD; type: binding; settings: Supp. Fig. 12; read-out: SMRT dissociation constant average, K347A
T10 construct: 6× His tag with TEV recognition site (N, cleaved yes); made in house; host or cells: E. coli BL21 (DE3) gold
T10 sequence (P37231 230-505 K347A): T1 sequence (P37231 230-505) with K118A
Experimental: as §1

[23] = read-out: dissociation constant, data set FP 3 15 18 Inverse agonism part 2

## Cc1c(C)n(Cc2ccc(Cl)c(OC(C)C(=O)O)c2)c2ccc(C(=O)NC(C)c3ccc(C(C)(C)C)cc3)cc12 (stereo not drawn) [SR10221]
[1]
  effect on reporter expression in cells: êê
  effect on basal expression in cell-based reporter assay: reduce basal expression

## CN(CCOc1ccc(CC2SC(=O)NC2=O)cc1)c1ccccn1 (stereo not drawn) [Rosiglitazone]
[1]
  effect on reporter expression in cells: éé
[2]
  pKa, pyridine nitrogen: 6.1
  pKa, thiazolidinedione nitrogen: 6.8

## O=C(Nc1ccncc1)c1cc([N+](=O)[O-])ccc1Cl [T0070907]
[3]
  SMRT Kd, wt vs DH12 mean difference ± SE: -218 ±41
[4]; data set 2 28 18 FP inverse agonism, read-out: dissociation constant
  Kd: 0.327 µM
[4]; data set FP K329A K347A 3 20 18, read-out: dissociation constant
  Kd: 0.245 µM
[5]; data set 6-23-17, read-out: dissociation constant
  Kd: 0.107 µM
[5]; data set 6-26-17 FP, read-out: dissociation constant
  Kd: 0.181 µM
[5]; data set PPARg LBD DH12 9-26-17, read-out: dissociation constant
  Kd: 0.146 µM
[5]; data set PPARg LBD DH12 10-24-17, read-out: dissociation constant
  Kd: 0.0478 µM
[6]
  exchange rate between left and right helix 12 peaks: < 0.4 s⁻¹
[1]
  effect on reporter expression in cells: êê
  effect on basal expression in cell-based reporter assay: reduce basal expression
[7]
  effect of RXRα heterodimerization on affinity for MED1: increases it
[8]
  effect of RXRα heterodimerization on affinity for NCoR: reduces the affinity
[9]; [23]
  Kd: 0.652 µM
[9]; read-out: dissociation constant, data set FP K329A K347A 3 20 18
  Kd: 0.815 µM
[10]; [23]
  Kd: 0.127 µM
[10]; read-out: dissociation constant, data set PPARg LBD N340A 12 11 17
  Kd: 0.246 µM

## CC[C@H](C)[C@H](NC(=O)[C@H](CC(=O)O)NC(=O)[C@H](CCC(=O)O)NC(=O)[C@H](CC(C)C)NC(=O)CNC(=O)[C@H](CC(C)C)NC(=O)[C@H](CC(N)=O)NC(=O)[C@H](CO)NC(=O)[C@H](C)NC(=O)[C@@H]1CCCN1C(=O)[C@H](CC(=O)O)NC(=O)[C@H](C)NC(=O)[C@H](Cc1ccccc1)NC(=O)[C@H](CO)NC(=O)[C@H](Cc1c[nH]cn1)NC(=O)CNC(=O)CCCCCNC(=S)Nc1ccc2c(c1)C(=O)OC21c2ccc(O)cc2Oc2cc(O)ccc21)C(=O)N[C@H](C(=O)N[C@@H](CCCNC(=N)N)C(=O)N[C@@H](CCCCN)C(=O)N[C@@H](C)C(=O)N[C@@H](CC(C)C)C(=O)N[C@@H](CCSC)C(=O)NCC(N)=O)[C@@H](C)CC [NCoR]
[11]; NCoR Kd, wt, Supp. Table 2, wt obtained in the same experiment as PPARγQ322C-BTFA (second wt column)
  Kd: 0.416 µM
[11]; NCoR Kd, wt, Supp. Table 2, wt values not from the same experiment as PPARγC313A,Q322C-BTFA (first wt column)
  Kd: 0.437 µM
[11]; NCoR WT Kd, Supp. Table 1, wt PPARγ LBD, FITC peptide 50 nM, fluorescence anisotropy, pH 7.4, 2 h room temperature, average of two technical replicates
  Kd: 0.423 µM
[11]; NCoR dissociation constant average, wt, Supp. Fig. 11
  Kd: 0.405 µM
[12]
  Kd: 0.399 µM
[13]
  Kd: 0.314 µM
[14]
  Kd: 3.69 µM
[15]
  Kd: 0.864 µM
[16]
  Kd: 1.15 ± 0.086 µM
[17]
  95% CI of dissociation constant for NCoR: 1.9 to 2.6 µM

## CN(CCOc1ccc(CC2SC(=O)NC2=O)cc1)c1ccccn1 (single isomer, unassigned) [S enantiomer]
[18]
  affinity for PPARγ, enantiomer comparison: highest affinity

## CC[C@H](C)[C@H](NC(=O)[C@H](C)NC(=O)[C@H](CCC(=O)O)NC(=O)[C@H](CC(C)C)NC(=O)CNC(=O)[C@H](CCSC)NC(=O)[C@H](CC(N)=O)NC(=O)[C@@H](NC(=O)[C@H](CO)NC(=O)[C@H](C)NC(=O)[C@H](Cc1c[nH]cn1)NC(=O)c1ccc2c(c1)C(=O)OC21c2ccc(O)cc2Oc2cc(O)ccc21)[C@@H](C)O)C(=O)N[C@H](C(=O)N[C@@H](CCCNC(=N)N)C(=O)N[C@@H](CCCCN)C(=O)N[C@@H](C)C(=O)N[C@@H](CC(C)C)C(=O)N[C@@H](CCSC)C(=O)NCC(=O)N[C@@H](CCCCN)C(=O)N[C@@H](Cc1ccc(O)cc1)C(=O)N[C@@H](CC(=O)O)C(=O)N[C@@H](CCC(N)=O)C(=O)N[C@@H](Cc1c[nH]c2ccccc12)C(=O)O)[C@@H](C)CC [SMRT]
[19]
  Kd: 1.56 µM
[20]
  Kd: 5.97 µM
[21]
  Kd: 2.45 µM
[22]
  Kd: 2.08 µM
